Source: patent US20240325394A1, “SALT AND CRYSTAL FORM OF NITROGEN-CONTAINING HETEROCYCLIC DERIVATIVE, PREPARATION METHOD THEREFOR AND APPLICATION THEREOF” (SHANGHAI HANSOH BIOMEDICAL CO., LTD., priority 2020, published 2024)
Like-named read-outs stand apart in the source and are kept apart here. Blank lines part the entries; values can stand above or below the molecule they belong to.

Key:
[1] = Plasma stability, mouse plasma; format: in vitro ADME
Protocol: (§1) Animal or human whole blood was collected, then the blood was put into a test tube containing anticoagulant, centrifuged at 3500 rpm for 10 min, and the upper layer of pale yellow plasma was collected. • 2) 10 μM of tested compound (m/M/V=C)
(§2) The compound was weighed, the stock solution was prepared with DMSO and the working solution was prepared with 100 mM phosphate buffer. • 3) 10 μM of positive control • (1) Propantheline (Propantheline Mr=449.4 Da)
(§3) • 1) 285 μL of plasma and 15 μL of 10 μM compound (tested compound) were added in turn in a 96-well plate, and incubated at 37° C. • 2) 40 μL was taken out at 0, 15, 30, 60, 90, 120 min, respectively, and 160 μL of acetonitrile termination solution containing internal standard was added. • 3) After centrifugation (3500 rpm, 10 min), 50 μL of supernatant was taken out, and then diluted with 50 μL DDH2O and injected to LC-MS/MS.
(§4) • instrument: Shimadzu LC-20 AD • chromatographic column: phenomenex Gemiu® C18 (50*4.6 mm, 5 μM particle size); • mobile phase: A: acetonitrile, B: 0.1% formic acid solution 0-8 min: 5% A→95% A, 2.0-2.1 min: 90% A→5% A; flow rate: 0.8 mL/min; running time: 5.0 min; injection volume: 5 μL.
(§5) • instrument: API4000 Liquid Chromatography-Mass Spectrometry, AB, USA; • the ion source was electrospray ionization source (ESI); • the temperature of dry gas (N2) was 500° C.; • electrospray voltage was 5500V; • the detection method was positive ion detection; • the scanning mode was selective response monitoring (MRM); • the scanning time was 0.1 s.

[2] = Pharmacokinetics in MiaPaca 2 tumor-bearing mice (plasma, tumor tissue); format: in vivo; conditions: female, mouse, po, p.o. 6 mg/kg
Protocol: The pharmacokinetic behavior of the compound of the embodiment 13-1 and AMG-510 compound, administered orally at a dose of 6 mg/kg, in mice (plasma, tumor tissue and intestine) was studied using MiaPaca 2 tumor-bearing mice as test animals.
24 MiaPaca 2 tumor-bearing mice, females. 3 for each time point (0 h, 1 h, 2 h, 4 h, 6 h, 8 h, 16 h, 24 h). Shanghai xipuer-bikai Laboratory Animal Co., Ltd, Animal Production License No. (SCXK (Shanghai) 2018-0006.
Embodiment compound 13-1 and compound AMG-510 were weighed and dissolved in the solution, the mixture was shaken well, and ultrasound was performed for 15 minutes to obtain a uniform suspension with a concentration of 0.6 mg/mL.
MiaPaca 2 tumor-bearing mice were administered at a dose of 6 mg/kg in a volume of 10 mL/kg, respectively, based on body weight p.o. after fasting (animals were not administered at point 0 h).
Before and after administration, mice were sacrificed with CO2, 0.5 mL blood was collected from the heart and placed in EDTA-2K tube, centrifuged at 4° C. […] The duodenum, ileum and colon tissues were cut with scissors, the contents were removed and cleaned twice with PBS, after absorbing water with absorbent paper, they were weighed, placed in a 2 mL centrifuge tube and stored at −80° C.

[3] = Plasma stability, dog plasma; format: in vitro ADME
Protocol: as §1, §2, §3, §4, §5

[4] = Plasma stability, human plasma; format: in vitro ADME; conditions: human
Protocol: as §1, §2, §3, §4, §5

[5] = Plasma stability, rat plasma; format: in vitro ADME
Protocol: as §1, §2, §3, §4, §5

[6] = tested on: NCI-H358 cells (KRAS G12C mutant); assay: Inhibition of NCI-H358 cell proliferation (CellTiter-Glo, 72 h); format: cell-based, human
Protocol: (§6) When NCI-H358 or Mia PaCa-2 cells were cultured to the appropriate fusion level, the NCI-H358 or Mia PaCa-2 cells were collected, and the cells were adjusted to the appropriate cell concentration using a complete medium, and the cell suspension was spread in a 96-well plate, 90 μL per well, and placed in a 37° C., 5% CO2 incubator overnight; and compound solutions of different concentrations were prepared using DMSO and culture medium; and a solvent control was set, the compound solution was added to a 96-well plate, 10 μL per well, at 37° C. in a 5% CO2 incubator for 72 hours; CellTiter-Glo solution was added thereto and the mixture was mixed well by shaking, incubated for 10 min in the dark, and read by BioTek Synergy H1 microplate reader.
(§7) The luminescence signal values were used to calculate the inhibition rate, the concentration and the inhibition rate were fitted to a nonlinear regression curve using Graphpad Prism software, then the IC50 value was obtained.

[7] = tested on: Mia PaCa-2 cells (KRAS G12C mutant); assay: Inhibition of Mia PaCa-2 cell proliferation (CellTiter-Glo, 72 h); format: cell-based, human
Protocol: as §6, §7

[8] = molecular target: T1, human KRAS G12C protein (Homo sapiens, UniProt P01116, G12C); assay: Thermal shift: melting temperature of KRAS G12C protein; format: binding; conditions: for Tm: KRAS G12C protein 5.37 μM with compound 10 μM, 1 hour; for ΔTm at 10 µM: Tm minus Tm of DMSO solvent control, compound 10 μM
T1 construct: purchased Beijing SinoBiological Co., Ltd. 12259-H07E2
Protocol: In this experiment, the thermal shift method was used to test the degree of change in the melting temperature (Tm) of the KRAS G12C protein before and after the binding of the compound, in order to characterize the ability of the compound to improve the stability of the KRAS G12C protein.
The specific experiment operation was as follows: • A solution containing […] (pH 7.5), 1 mM DTT, 5× SYPRO Orange and 150 mM NaCl was prepared as the experimental buffer, and a final concentration of 5.37 μM human KRAS G12C protein was added thereto. The reaction mixture was divided into 8 rows of PCR tubes, each 19.5 μL, and 0.5 μL of the test compound or DMSO were added respectively, so that the total reaction system was 20 μL, the final concentration of the compound was 10 μM, and 2.5% DMSO was set as the solvent control. After incubating at room temperature in the dark for 1 hour, the PCR tube was put into the PCR instrument, QuantStudio Software v1.3 was opened, and the melting temperature of KRAS G12C protein in different treatment groups was detected by melt curve function (heating from 25° C. to 95° C., 0.03° C./s).
The experimental data file of PCR instrument was imported into thermal shift software, and the melting temperature (Tm) of each treatment group was obtained, and the change value of melting temperature (ATm) was obtained by subtracting the Tm of DMSO solvent control group.

SMILES: C=CC(=O)N1CCN(c2nc(=O)n(-c3c(C)ccnc3C(C)C)c3nc(-c4c(O)cccc4F)c(F)cc23)[C@@H](C)C1 [AMG 510, reference compound]
Residual rate (%) 0 min ([1]; mouse plasma, 37° C., 0 min): 100.00% | Residual rate (%) 15 min ([1]; mouse plasma, 37° C., 15 min): 97.50% | Residual rate (%) 30 min ([1]; mouse plasma, 37° C., 30 min): 82.58% | Residual rate (%) 60 min ([1]; mouse plasma, 37° C., 60 min): 81.82% | Residual rate (%) 120 min ([1]; mouse plasma, 37° C., 120 min): 63.23% | half-life at 0.5 μM ([1]; mouse, plasma): 3.08 h | MRT ([2]; Plasma): 0.8 h | half-life ([2]; Plasma): 0.3 h | MRT ([2]; Tumor): 0.7 h | half-life ([2]; Tumor): 0.3 h | Kp ([2]; exposure in tumor to exposure in plasma, read-out: Ratio (T/P)): 0.42 | Residual rate (%) 0 min ([3]; dog plasma, 37° C., 0 min): 100.00% | Residual rate (%) 15 min ([3]; dog plasma, 37° C., 15 min): 98.88% | Residual rate (%) 30 min ([3]; dog plasma, 37° C., 30 min): 101.14% | Residual rate (%) 60 min ([3]; dog plasma, 37° C., 60 min): 93.43% | Residual rate (%) 120 min ([3]; dog plasma, 37° C., 120 min): 91.92% | half-life at 0.5 μM ([3]; dog, plasma): 14.7 h | Residual rate (%) 0 min ([4]; 0 min, 0.5 μM): 100.00% | Residual rate (%) 15 min ([4]; 15 min, 0.5 μM): 93.77% | Residual rate (%) 30 min ([4]; 30 min, 0.5 μM): 85.72% | Residual rate (%) 60 min ([4]; 60 min, 0.5 μM): 82.51% | Residual rate (%) 120 min ([4]; 120 min, 0.5 μM): 64.44% | half-life at 0.5 μM ([4]; plasma): 3.31 h | Residual rate (%) 0 min ([5]; rat plasma, 37° C., 0 min): 100.00% | Residual rate (%) 15 min ([5]; rat plasma, 37° C., 15 min): 100.85% | Residual rate (%) 30 min ([5]; rat plasma, 37° C., 30 min): 93.03% | Residual rate (%) 60 min ([5]; rat plasma, 37° C., 60 min): 77.54% | Residual rate (%) 120 min ([5]; rat plasma, 37° C., 120 min): 56.77% | half-life at 0.5 μM ([5]; rat, plasma): 2.29 h

SMILES: C=CC(=O)N1CCN(c2nc(=O)n(-c3c(SC)ccnc3C(C)C)c3nc(-c4c(O)cccc4F)c(F)cc23)[C@@H](C)C1 [Embodiment 1-1, P-4-((S)-4-acryloyl-2-methylpiperazin-1-yl)-6-fluoro-7-(2-fluoro-6-hydroxyphenyl)-1-(2-isopropyl-4-(methylthio)pyridin-3-yl)pyrido[2,3-d]pyrimidin-2(1H)-one]
IC50 [6]: 28 nM | IC50 [7]: 55 nM

Further lines, results first:

IC50 ([6]; Homo sapiens, NCI-H358, 72 h): 14 nM | IC50 ([7]; Homo sapiens, MIA PaCa-2, 72 h): 41 nM | Tm [8]: 61.5 °C | ΔTm at 10 µM [8]: 10.9 °C
SMILES: C=CC(=O)N1CCN(c2nc(=O)n(-c3c(SC)ccnc3C(C)C)c3nc(-c4c(O)cccc4F)c(Cl)cc23)[C@@H](C)C1 [Embodiment 3, 4-((S)-4-Acryloyl-2-methylpiperazin-1-yl)-6-chloro-7-(2-fluoro-6-hydroxyphenyl)-1-(2-isopropyl-4-(methylthio)pyridin-3-yl)pyrido[2,3-d]pyrimidin-2(1H)-one]

IC50 ([6]; Homo sapiens, NCI-H358, 72 h): 48 nM | IC50 ([7]; Homo sapiens, MIA PaCa-2, 72 h): 47 nM | Tm [8]: 61.2 °C | ΔTm at 10 µM [8]: 11.7 °C
SMILES: C=CC(=O)N1CCN(c2nc(=O)n(-c3c(SC)ccnc3C(C)C)c3nc(-c4c(F)cccc4SC)c(F)cc23)[C@@H](C)C1 [Embodiment 4, 4-((S)-4-Acryloyl-2-methylpiperazin-1-yl)-6-fluoro-7-(2-fluoro-6-(methylthio)phenyl)-1-(2-isopropyl-4-(methylthio)pyridin-3-yl)pyrido[2,3-d]pyrimidin-2(1H)-one]

IC50 ([6]; Homo sapiens, NCI-H358, 72 h): 79 nM | IC50 ([7]; Homo sapiens, MIA PaCa-2, 72 h): 68 nM
SMILES: C=CC(=O)N1CCN(c2nc(=O)n(-c3c(SC)ccnc3C(C)C)c3nc(-c4c(F)cccc4F)c(Cl)cc23)[C@@H](C)C1 [Embodiment 12, (S)-4-(4-acryloyl-2-methylpiperazin-1-yl)-7-(2,6-difluorophenyl)-6-chloro-1-(2-isopropyl-4-(methylthio)pyridin-3-yl)pyrido[2,3-d]pyrimidin-2(1H)-one]
